# Assay results published in patent US12350475B2 (SUN PHARMACEUTICAL INDUSTRIES LIMITED, priority 2020, dated 2025).
# Structures can show the parent of a compound that is named as a salt.
# Assays:
# [1] = pharmacokinetics of octreotide after subcutaneous injection
# Source text: (§1) For patients with acromegaly, there may be a different pharmacokinetic profile.
# [2] = pharmacokinetics of octreotide after subcutaneous dosing in patients with acromegaly
# Source text: as §1
# [3] = distribution of octreotide in blood (erythrocytes, plasma binding)
# Source text: as §1
compound,measurement,setting,value
"C[C@@H](O)[C@@H]1NC(=O)[C@H](CCCCN)NC(=O)[C@@H](Cc2c[nH]c3ccccc23)NC(=O)[C@H](Cc2ccccc2)NC(=O)[C@@H](NC(=O)[C@H](N)Cc2ccccc2)CSSC[C@@H](C(=O)N[C@H](CO)[C@@H](C)O)NC1=O (relative stereo) [octreotide, L-cysteinamide, D-phenylalanyl-L-cysteinyl-L-phenylalanyl-D-tryptophyl-L-lysyl-L-threonyl-N-[2-hydroxy-1-(hydroxymethyl)propyl]-, cyclic (2#7)-disulfide; [R—(R*, R*)] acetate salt]",absorption from the injection site,[1]; after subcutaneous injection,absorbed completely
same,Vd,"[1]; human, plasma, subcutaneous",~13.6 L
same,clearance,"[1]; human, plasma, subcutaneous",117 to 167 mL/min
same,dose proportionality of peak concentrations and area under the curve values,"[1]; subcutaneous single doses up to 500 μg and multiple doses up to 500 μg three times a day (1,500 μg/day)",dose proportional
same,peak concentration,"[1]; subcutaneous, dose of 100 μg",about 5.2 ng/mL
same,time to peak concentration after dosing,"[1]; subcutaneous, dose of 100 μg",0.4 h
same,Vd,"[2]; human, in vivo, subcutaneous",~21.6 L
same,clearance,"[2]; human, in vivo, subcutaneous",~300 mL/min
same,time to mean peak concentration after subcutaneous dosing,"[2]; patients with acromegaly, 100 μg dose",about 0.7 hours
same,mean peak concentration,"[2]; patients with acromegaly, subcutaneous, 100 μg dose",about 2.8 ng/mL
same,bound in the plasma,[3]; concentration-independent manner,about 65%
same,distribution into the erythrocytes,[3]; in blood,negligible
